In publication PMC3133966 (Nature neuroscience, 2011):

How the values were obtained:
[1] = target: T1, KCNQ5 (Kv7.5); presynaptic KCNQ5 homomers (Rattus norvegicus, UniProt F1LY25); test: whole-cell patch clamp of rat calyx of Held, outward K+ current; assay type: cell-based; conditions: read-out: % of control current remaining at 10 μM
[2] = target: T1, KCNQ5 (Kv7.5); presynaptic KCNQ5 homomers; test: as above; assay type: cell-based; conditions: read-out: % inhibition at 100 μM

T1 sequence (F1LY25 1-951): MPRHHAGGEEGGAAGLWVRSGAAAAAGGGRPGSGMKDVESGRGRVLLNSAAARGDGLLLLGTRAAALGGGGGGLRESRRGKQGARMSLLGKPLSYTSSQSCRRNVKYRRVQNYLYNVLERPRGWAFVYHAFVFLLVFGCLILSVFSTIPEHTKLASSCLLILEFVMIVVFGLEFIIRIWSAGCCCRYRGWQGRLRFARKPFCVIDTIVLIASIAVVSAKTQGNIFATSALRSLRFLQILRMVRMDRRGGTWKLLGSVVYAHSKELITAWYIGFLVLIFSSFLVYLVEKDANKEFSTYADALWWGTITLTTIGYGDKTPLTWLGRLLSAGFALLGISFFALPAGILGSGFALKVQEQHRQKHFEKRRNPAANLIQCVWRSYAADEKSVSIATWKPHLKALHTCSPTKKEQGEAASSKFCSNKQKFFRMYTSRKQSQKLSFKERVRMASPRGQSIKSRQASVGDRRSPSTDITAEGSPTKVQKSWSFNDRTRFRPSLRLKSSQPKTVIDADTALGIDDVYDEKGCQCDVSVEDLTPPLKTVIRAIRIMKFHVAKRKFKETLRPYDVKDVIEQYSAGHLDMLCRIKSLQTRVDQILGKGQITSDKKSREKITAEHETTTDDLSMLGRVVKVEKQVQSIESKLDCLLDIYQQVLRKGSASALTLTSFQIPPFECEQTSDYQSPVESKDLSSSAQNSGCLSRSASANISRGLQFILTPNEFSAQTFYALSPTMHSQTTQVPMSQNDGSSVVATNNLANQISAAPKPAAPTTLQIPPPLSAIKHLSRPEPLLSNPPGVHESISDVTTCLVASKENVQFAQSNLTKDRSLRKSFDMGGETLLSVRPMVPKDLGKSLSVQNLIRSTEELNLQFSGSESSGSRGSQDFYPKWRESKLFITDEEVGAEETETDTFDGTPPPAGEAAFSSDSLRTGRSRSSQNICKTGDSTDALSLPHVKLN

**Q.** O=C1N(c2ccccc2)c2ccccc2C1(Cc1ccncc1)Cc1ccncc1 [linopirdine] was tested. Which remaining activity at 10 µM [1] did it give?
**A.** 17 ± 4%

**Q.** How did the inhibition at 100 µM [2] turn out when O=C(O)Cc1ccccc1Nc1c(Cl)cccc1Cl [diclofenac] was run?
**A.** 53 ± 4%
